According to patent US20230271924A1 (published 2023):

SMILES	melting point [°C]
CCCCCCCC(=O)Oc1cccc2[nH]cc(CCN(C)C)c12	69 to 70
CCCCCCCCCCCCCC(=O)Oc1cccc2[nH]cc(CCN(C)C)c12	58 to 59
